Results: patent US20120034193A1, “TREATMENT OF NEUROTROPHIC FACTOR MEDIATED DISORDERS” (priority 2009, published 2012)
Where a name gives a salt, the structure may show the parent alone.

Key:
pmn mice = settings: literature; CNTF i.p. CNTF-secreting cells, Xaliproden oral from birth, CGP 3466B oral at onset; cited from earlier work
[1] = tested on: Rat spinal motor neurones; assay: Neuronal survival and neurite outgrowth in spinal motor neurones; format: cell-based; settings: 3 days
Experimental: Rat spinal motor neurones were prepared according to a previously described method (Martinou et al, Neuron, 8, 737-744, 1992). Following 3 days of culturing with sarsasapogenin, smilagenin, vehicle (DMSO, 0.25%), Xaliproden, or BDNF, spinal cord motor neurones were washed twice in PBS, fixed in a cold solution of alcohol (95%) and acetic acid (5%) for 5 min and then rinsed 3 times in PBS. Neurones were stained using a monoclonal antibody anti β-tubulin and an anti mouse Immunoglobulin G. These antibodies stained neurone cell bodies (quantifying the neuroprotective effect) and neurites (quantifying the neurotrophic effect). The cell nuclei were stained by a fluorescent marker. After 1 h of incubation, cells were washed 3 times in PBS. […] A series of pictures were taken using a camera controlled by computer software. All the images were taken under the same conditions. Analyses of the number of cells labelled with anti β-tubulin antibodies and of the total number of cells (number of stained nuclei) were performed using LUCIA 6.0 software.

trkB mRNA = trkB mRNA expression in rat cortical neurones under basal conditions (rt RT-PCR); format: cell-based; settings: 0.5 mM
Experimental: (§1) Rat cortical neurones were cultured by modification of a method previously described (Singer, et al., Neuroscience Letters, 1996, 212, pp. 13-16). Twelve days after the start of culturing, sarsasapogenin (30 nM), smilagenin (30 nM), 4-methylcatechol (0.5 mM), an inducer of NGF and BDNF release (Saporito et al., Experimental Neurology., 1993, 123, pp. 295-302; Nitta et al., Journal of Pharmacology and Experimental Therapeutics, 1999, 291, pp. 1276-1283) or vehicle (dimethyl sulfoxide, DMSO, 0.25%) were added for 1, 3 or 6 h. After incubation the total messenger ribonucleic acid (mRNA) was quantified using real time reverse transcription-polymerase chain reaction (rt RT-PCR).

BDNF mRNA = BDNF mRNA expression in rat cortical neurones under basal conditions (rt RT-PCR); format: cell-based; settings: 0.5 mM
Experimental: as §1

C57b1/6 RJ mice = assay: Sciatic nerve crush model; format: in vivo, Mouse; settings: 10 μg/kg/day i.p.; nerve crush alone 109.10 ± 2.65
Text: The sciatic nerve crush model is a well characterised reversible model for motor neurone disease and post-traumatic nerve injuries (McMahon and Priestley, Current Opinion in Neurobiology, 1995, 5, pp. 616-624). The nerve damage is produced by mechanical pressure using haemostatic forceps, applied twice, 5 mm proximal to the trifurcation of the right sciatic nerve of these mice. […] The loss of nerve function recovers progressively over a 4-5 week period after the mechanical insult.
4-Methylcatechol (10 μg/kg/day, i.p.) was used as a positive control (Kaechi et al., Journal of Phamacology and Experimental Therapeutics, 1995, 272, pp. 1300-1304).
C57b1/6 RJ mice were anaesthetised with ketamine chlorhydrate (60 mg/kg, i.p.). The sciatic nerve was surgically exposed at mid thigh level and crushed at 5 mm proximal to the trifurcation of the sciatic nerve. The nerve was crushed twice for 30 s with a haemostatic forceps with a 90-degree rotation between each crush. […] The loss of nerve function recovered progressively over a 4-5 week period after mechanical insult. Electromyographic recordings were assessed as described above.

[2] = tested on: rat primary cortical neurones; assay: Inhibition of induced neurite outgrowth by K252a or PD98059; format: cell-based
Experimental: (§2) Cortical neurones were cultured as detailed above. Neurones were exposed to vehicle (DMSO, 0.25%) or K252a (100 nM) for 1 h. After 1 h, vehicle, sarsasapogenin, smilagenin (30 nM) or BDNF (1.85 nM) was added to the medium in the maintained presence of K252a. Following 24 h exposure to sarsasapogenin or smilagenin (30 nM), vehicle (DMSO, 0.25%) or BDNF (1.85 nM), the neurones were washed using phosphate-buffered saline (PBS) and fixed in glutaraldehyde (2.5%) in PBS. Photographs of 40-60 neurones expressing neurites were taken with a camera fixed on a microscope (objective ×20, Nikon). The neurite length was measured by an analysis of the photographs.
as §2, with “PD98059 (10 μM)” for “K252a (100 nM)”, “vehicle,” for “vehicle, sarsasapogenin,”, “PD98059.” for “K252a.”, “to” for “to sarsasapogenin or”, “PBS” for “phosphate-buffered saline (PBS)”

[3] = tested on: rat primary cortical neurones; assay: Pre-treatment against glutamate-induced damage (LDH) in cortical neurones; format: cell-based; settings: 24 h before and 24 h after glutamate 100 μM 10 min
Experimental: Exposure of rat primary cortical neurones to glutamate increases lactate dehydrogenase (LDH) activity measured 24 h after glutamate exposure, indicating significant neuronal damage. Rat cortical neurones were cultured by modification of a method previously described (Singer, et al., Neuroscience Letters, 1996, 212, pp. 13-16). On day 10 of culture, the medium was changed to a serum-free defined medium. On day 12, the cultures were washed and placed for 24 h in fresh medium containing test compound or vehicle (DMSO, 0.25%). On day 13 neurones were exposed to glutamate (100 μM; 10 min) at 37° C. The cultures were then washed with, and placed in, fresh medium supplemented with test compound or vehicle for a further 24 h before LDH was measured. Neuronal damage was assessed by measuring LDH activity in the media at 24 h after glutamate exposure.

[4] = tested on: Rat spinal motor neurones; assay: Reversal of glutamate-induced damage in spinal motor neurones; format: cell-based; settings: 3 nM for 48 h after glutamate 4 μM 10 min
Experimental: The rat spinal motor neurones were prepared as detailed above. On day 10, the medium was removed and the cultures exposed to glutamate (4 μM) for 10 min at 37° C. in 5% CO2/95% air atmosphere in defined medium. After the glutamate exposure, cultures were washed with DMEM at 37° C. then placed in fresh culture medium containing sarsasapogenin, smilagenin, vehicle or BDNF. After 48 h, the extent of motor neurone damage was determined as detailed above. This Example develops the work reported in Example 8 of PCT patent application No. WO-A-03/082893.

Rat cortical neurones [5] = assay: Neuritogenesis in cortical neurones; format: cell-based; settings: 3 nM, 24 h
Experimental: Rat cortical neurones were cultured by modification of a previously described method (Singer, et al., Neuroscience Letters, 1996, 212, pp. 13-16). Cells were cultured with sarsasapogenin, smilagenin, vehicle (DMSO 0.25%), GDNF, BDNF or NGF for 24 h. For each group, 15 pictures showing neurones displaying neurites were selected at random in each field, and for each neurone the longest neurite was measured. The neurite number was measured by counting the number of neurones displaying neurites, the number of neurones not displaying neurites and the number of total neurones in each field. Six fields per well were examined.
The results are shown in Table 15 below, expressed as the number of neurones with neurites per field as a percentage of the total number of neurones per field.

Rat cortical neurones [6] = assay: Neuronal survival and neurite outgrowth of cortical neurones cultured in the absence of serum; format: cell-based; settings: 3 nM, one day, no serum
Experimental: Rat cortical neurones were cultured following the method described above.
The test compounds were added for 24 h.
Rat cortical neurones were exposed to sarsasapogenin, smilagenin (30 nM) or vehicle (DMSO, 0.25%) in the absence FBS or FCS for one day. Cortical neurones were stained using a monoclonal antibody anti β-tubulin diluted and an anti mouse Immunoglobulin G diluted. These antibodies stained neurone cell bodies (quantifying the neuroprotective effect) and neurites (quantifying the neurotrophic effect). An epifluorecence microscope (magnification ×20) with a camera took 2 pictures per well (10 pictures per condition). Analyses of the number of cells labelled with anti β-tubulin antibodies and of the total number of cells was performed using LUCIA 6.0 software.

## FC(F)(F)c1cccc(C2=CCN(CCc3ccc4ccccc4c3)CC2)c1 [Xaliproden, 1-[2-(naphth-2-yl)ethyl]-4-(3-trifluoromethylphenyl)-1,2,5,6-tetra-hydropyri-dine hydrochloride, reference compound]
Pmn mice
  Increase of survival time / lifespan of pmn mice: ~50%
[1]; 30 nM
  Neurite outgrowth (% of control): 137.57 ± 11.69 % of control
  Neuronal survival (% of control): 110.95 ± 2.14 % of control
[1]; 100 nM
  Neurite outgrowth (% of control): 137.55 ± 6.76 % of control
  Neuronal survival (% of control): 111.18 ± 2.85 % of control
[1]; 300 nM
  Neurite outgrowth (% of control): 131.22 ± 7.93 % of control
  Neuronal survival (% of control): 109.47 ± 3.34 % of control

## Cc1c(C)c2c(c(C)c1O)CC[C@@](C)(C(=O)N1CCN(c3ccc(N=C(N)c4cccs4)cc3)CC1)O2 [BN 80933]
Pmn mice
  Increase of survival time / lifespan of pmn mice: 40%

## Cc1ccc(O)c(O)c1 [4-Methylcatechol, reference compound]
trkB mRNA; 1 h
  trkB mRNA, % increase above control: No increase
trkB mRNA; 3 h
  trkB mRNA, % increase above control: No increase
trkB mRNA; 6 h
  trkB mRNA, % increase above control: No increase
BDNF mRNA; 1 h
  BDNF mRNA, % increase above control: No increase
BDNF mRNA; 3 h
  BDNF mRNA, % increase above control: No increase
BDNF mRNA; 6 h
  BDNF mRNA, % increase above control: 92%
C57b1/6 RJ mice
  Degenerated fibres (% of control): −7.48 ± 1.62 % of control

## COc1cccc(-c2cc(=O)c3ccccc3o2)c1N [PD98059, reference compound]
[2]; PD98059 10 μM alone (control with PD98059)
  Neurite length (% of control): 96.08 ± 2.47 % of control

## COC(=O)[C@@]1(O)C[C@H]2O[C@]1(C)n1c3ccccc3c3c4c(c5c6ccccc6n2c5c31)C(=O)NC4 [K252a, reference compound]
[2]; K252a 100 nM alone (control with K252a)
  Neurite length (% of control): 95.22 ± 3.10 % of control

## C[C@@H]1CC[C@@]2(OC1)O[C@H]1C[C@H]3[C@@H]4CC=C5C[C@@H](O)CC[C@]5(C)[C@H]4CC[C@]3(C)[C@H]1[C@@H]2C [diosgenin, reference compound]
[3]; 3 nM
  Neuronal survival (% of control): 69.43 ± 1.76 % of control
[3]; 10 nM
  Neuronal survival (% of control): 66.51 ± 5.13 % of control
[3]; 30 nM
  Neuronal survival (% of control): 68.98 ± 5.39 % of control
[3]; 100 nM
  Neuronal survival (% of control): 70.95 ± 5.03 % of control
[3]; 300 nM
  Neuronal survival (% of control): 75.02 ± 2.68 % of control

## C#CCN(C)CC1=Cc2ccccc2Oc2ccccc21.O=C(O)/C=C\C(=O)O [CGP 3466B]
Pmn mice
  Increase of survival time / lifespan of pmn mice: 57%

B1: CNTF: ciliary neurotrophic factor; i.p. administration of CNTF-secreting cells (protein, UniProt P26441 1-200, looked up)
Ciliary neurotrophic factor: MAFTEHSPLTPHRRDLCSRSIWLARKIRSDLTALTESYVKHQGLNKNINLDSADGMPVASTDQWSELTEAERLQENLQAYRTFHVLLARLLEDQQVHFTPTEGDFHQAIHTLLLQVAAFAYQIEELMILLEYKIPRNEADGMPINVGDGGLFEKKLWGLKVLQELSQWTVRSIHDLRFISSHQTGIPARGSHYIANNKKM
modifications: secreted by cells
Pmn mice
  Increase of survival time / lifespan of pmn mice: 40%

B2: BDNF: brain-derived neurotrophic factor (protein, UniProt P23560 19-247, looked up)
Neurotrophic factor BDNF …: APMKEANIRGQGGLAYPGVRTHGTLESVNGPKAGSRGLTSLADTFEHVIEELLDEDQKVRPNEENNKDADLYTSRVMLSSQVPLEPPLLFLLEEYKNYLDAANMSMRVRRHSDPARRGELSVCDSISEWVTAADKKTAVDMSGGTVTVLEKVPVSKGQLKQYFYETKCNPMGYTKEGCRGIDKRHWNSQCRTTQSYVRALTMDSKKRIGWRFIRIDTSCVCTLTIKRGR
[4]
  Neuronal survival (% of control): 106.60 ± 6.14 % of control
[1]; 1.85 nM
  Neurite outgrowth (% of control): 176.91 ± 7.25 % of control
  Neuronal survival (% of control): 126.15 ± 1.60 % of control
Rat cortical neurones [5]
  Neurite length (% of control): 162.34 ± 5.91 % of control
Rat cortical neurones [5]; control 39.35 ± 2.06
  Neurones displaying neurites (%): 48.06 ± 2.17 %
[2]; 1.85 nM, 24 h, no inhibitor
  Neurite length (% of control): 125.30 ± 5.80^++++ % of control
[2]; 1.85 nM, 24 h, with K252a (100 nM)
  Neurite length (% of control): 87.31 ± 2.20 % of control
[2]; 1.85 nM, 24 h, with PD98059 (10 μM)
  Neurite length (% of control): 99.07 ± 5.15 % of control
Rat cortical neurones [6]
  Neurite outgrowth (% of control): 146.84 ± 9.27 % of control
  Neuronal survival (% of control): 162.75 ± 5.61 % of control
